Assay results taken from patent US20230233569A1 (Revolution Medicines, Inc., priority 2020, published 2023).
pIC50: −log10 of the molar value. Several values for one entry are separate records, joined by “and”; a condition that tells them apart may be missing. Equal entries are not always repeated. Where two headings read alike, the source gives them in different places.

Columns and labels:
Capan-1 (K-Ras G12V) = assay: CellTiter-Glo cell viability assay, 5-day treatment; type: cell-based; settings: Homo sapiens, CAPAN-1, 120 h, 5-day treatment; read-out: Capan-1 Cell Viability assay data (K-Ras G12V, IC50)
Procedure, shortened: (§1)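 Luminescence read-out after 5 days of compound exposure, with plates first brought to room temperature for roughly 30 minutes. Values are percent of averaged DMSO wells, fitted by four-parameter logistic regression.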

KRAS G12C = KRAS G12C (Homo sapiens, UniProt P01116+P62937, G12C); assay: Disruption of BRAF RBD interaction with Ras (FRET / MOA assay, with Cyclophilin A); type: biochemical
Sequence of KRAS G12C (P01116 1-169 isoform P01116-2 G12C): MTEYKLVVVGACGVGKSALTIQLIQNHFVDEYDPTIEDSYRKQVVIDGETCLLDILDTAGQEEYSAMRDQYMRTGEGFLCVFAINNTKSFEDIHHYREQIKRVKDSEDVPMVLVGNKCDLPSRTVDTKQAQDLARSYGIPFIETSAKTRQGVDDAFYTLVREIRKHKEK
Sequence of KRAS G12C (P62937 whole entry): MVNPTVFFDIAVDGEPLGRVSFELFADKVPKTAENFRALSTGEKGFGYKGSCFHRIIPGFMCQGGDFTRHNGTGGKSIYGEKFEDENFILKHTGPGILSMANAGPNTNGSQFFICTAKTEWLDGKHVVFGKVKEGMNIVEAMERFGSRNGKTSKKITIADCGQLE
Description: (§2) This protocol may also be executed substituting other Ras proteins or nucleotides.
(§3) The purpose of this biochemical assay was to measure the ability of test compounds to facilitate ternary complex formation between a nucleotide-loaded K-Ras isoform and Cyclophilin A; the resulting ternary complex disrupts binding to a BRAF^RBD construct, inhibiting K-Ras signaling through a RAF effector. Data is reported as IC50 values.
(§4) Compound was present in plate wells as a 10-point 3-fold dilution series starting at a final concentration of 30 μM. After incubation at 25° C. for 3 hours, a mixture of Anti-His Eu-W1024 and anti-GST allophycocyanin was then added to assay sample wells at final concentrations of 10 nM and 50 nM, respectively, and the reaction incubated for an additional 1.5 hours. […] Compounds that facilitate disruption of a K-Ras:RAF complex were identified as those eliciting a decrease in the TR-FRET ratio relative to DMSO control wells.
as §3, with “BRAF^RBDD” for “BRAF^RBD”

KRAS G12D = KRAS G12D (Homo sapiens, UniProt P01116+P62937, G12D); assay: as above; type: biochemical
Sequence of KRAS G12D (P01116 1-169 isoform P01116-2 G12D limits assumed): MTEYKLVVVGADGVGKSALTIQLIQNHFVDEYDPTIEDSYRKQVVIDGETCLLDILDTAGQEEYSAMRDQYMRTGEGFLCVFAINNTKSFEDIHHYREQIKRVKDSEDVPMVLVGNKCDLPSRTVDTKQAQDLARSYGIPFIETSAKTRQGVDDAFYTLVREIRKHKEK
Sequence of KRAS G12D (P62937 whole entry): as the sequence (P62937 whole entry) above
Description: as §2, §3, §4
as §3, with “BRAF^RBDD” for “BRAF^RBD”

KRAS G12S = KRAS G12S (Homo sapiens, UniProt P01116+P62937, G12S); assay: as above; type: biochemical
Sequence of KRAS G12S (P01116 1-169 isoform P01116-2 G12S limits assumed): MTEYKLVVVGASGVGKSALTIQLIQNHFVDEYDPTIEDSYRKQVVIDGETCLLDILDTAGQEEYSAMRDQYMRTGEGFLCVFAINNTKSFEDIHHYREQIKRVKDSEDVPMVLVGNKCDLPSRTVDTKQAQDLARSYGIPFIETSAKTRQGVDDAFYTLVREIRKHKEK
Sequence of KRAS G12S (P62937 whole entry): as the sequence (P62937 whole entry) above
Description: as §2, §3, §4
as §3, with “BRAF^RBDD” for “BRAF^RBD”

KRAS G12V = KRAS G12V (Homo sapiens, UniProt P01116+P62937, G12V); assay: as above; type: biochemical
Sequence of KRAS G12V (P01116 1-169 isoform P01116-2 G12V limits assumed): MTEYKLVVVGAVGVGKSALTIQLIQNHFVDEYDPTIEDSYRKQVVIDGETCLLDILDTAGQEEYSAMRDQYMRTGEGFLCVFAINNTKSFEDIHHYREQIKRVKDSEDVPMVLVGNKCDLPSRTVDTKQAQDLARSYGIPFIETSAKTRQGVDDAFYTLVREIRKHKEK
Sequence of KRAS G12V (P62937 whole entry): as the sequence (P62937 whole entry) above
Description: as §2, §3, §4
as §3, with “BRAF^RBDD” for “BRAF^RBD”

KRAS G13C = KRAS G13C (Homo sapiens, UniProt P01116+P62937, G13C); assay: as above; type: biochemical
Sequence of KRAS G13C (P01116 1-169 isoform P01116-2 G13C): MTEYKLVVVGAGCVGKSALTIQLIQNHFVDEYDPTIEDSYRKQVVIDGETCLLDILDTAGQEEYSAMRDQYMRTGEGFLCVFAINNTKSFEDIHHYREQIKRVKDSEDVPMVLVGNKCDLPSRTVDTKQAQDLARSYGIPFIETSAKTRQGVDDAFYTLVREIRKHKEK
Sequence of KRAS G13C (P62937 whole entry): as the sequence (P62937 whole entry) above
Description: as §2, §3, §4
as §3, with “BRAF^RBDD” for “BRAF^RBD”

KRAS G13D = KRAS G13D (Homo sapiens, UniProt P01116+P62937, G13D); assay: as above; type: biochemical
Sequence of KRAS G13D (P01116 1-169 isoform P01116-2 G13D limits assumed): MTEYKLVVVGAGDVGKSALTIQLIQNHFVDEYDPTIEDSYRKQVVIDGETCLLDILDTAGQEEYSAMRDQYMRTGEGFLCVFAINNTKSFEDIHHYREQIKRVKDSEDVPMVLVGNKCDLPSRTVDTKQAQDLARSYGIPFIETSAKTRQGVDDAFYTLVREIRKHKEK
Sequence of KRAS G13D (P62937 whole entry): as the sequence (P62937 whole entry) above
Description: as §2, §3, §4
as §3, with “BRAF^RBDD” for “BRAF^RBD”

KRAS WT = KRAS WT (Homo sapiens, UniProt P01116+P62937); assay: as above; type: biochemical
Sequence of KRAS WT (P01116 1-169 isoform P01116-2 limits assumed): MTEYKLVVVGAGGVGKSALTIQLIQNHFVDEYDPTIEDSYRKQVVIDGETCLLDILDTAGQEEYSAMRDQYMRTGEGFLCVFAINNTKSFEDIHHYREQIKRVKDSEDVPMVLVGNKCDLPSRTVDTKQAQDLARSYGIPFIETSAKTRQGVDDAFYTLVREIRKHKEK
Sequence of KRAS WT (P62937 whole entry): as the sequence (P62937 whole entry) above
Description: as §2, §3, §4
as §3, with “BRAF^RBDD” for “BRAF^RBD”

NRAS G12C = NRAS G12C (Homo sapiens, UniProt P01111+P62937, G12C); assay: as above; type: biochemical
Sequence of NRAS G12C (P01111 whole entry G12C): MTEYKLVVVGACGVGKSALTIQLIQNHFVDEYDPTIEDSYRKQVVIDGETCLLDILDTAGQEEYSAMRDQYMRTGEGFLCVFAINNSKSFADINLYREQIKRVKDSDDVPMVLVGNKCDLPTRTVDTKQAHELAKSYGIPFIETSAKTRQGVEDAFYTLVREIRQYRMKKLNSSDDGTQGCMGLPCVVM
Sequence of NRAS G12C (P62937 whole entry): as the sequence (P62937 whole entry) above
Description: as §2, §3, §4
as §3, with “BRAF^RBDD” for “BRAF^RBD”

NCI-H358 (K-Ras G12C) = assay: CellTiter-Glo cell viability assay, 5-day treatment; type: cell-based; settings: Homo sapiens, NCI-H358, 120 h, 5-day treatment
Procedure, shortened: as §1

[1] = read-out: KRAS G12C FRET data, IC50
[2] = read-out: KRAS G12D FRET data, IC50
[3] = read-out: KRAS G12S FRET data, IC50
[4] = KRAS G12V, read-out: KRAS G12V FRET data IC50
[5] = read-out: KRAS G13C FRET data, IC50
[6] = KRAS G13D, read-out: KRAS G13D FRET data IC50
[7] = KRAS WT, read-out: KRAS WT FRET data IC50
[8] = NRAS G12C, read-out: NRAS G12C FRET data IC50
[9] = read-out: H358 Cell Viability assay data (K-Ras G12C, IC50)

| Structure (SMILES) | pIC50 (KRAS G12C; [1]) | pIC50 (KRAS G12D; [2]) | pIC50 (KRAS G12S; [3]) | pIC50 (KRAS G12V; [4]) | pIC50 (KRAS G13C; [5]) | pIC50 (KRAS G13D; [6]) | pIC50 (KRAS WT; [7]) | pIC50 (NRAS G12C; [8]) | pIC50 (NCI-H358 (K-Ras G12C); [9]) | pIC50 (Capan-1 (K-Ras G12V)) | further results |
| --- | --- | --- | --- | --- | --- | --- | --- | --- | --- | --- | --- |
| C=CC(=O)N1CC[C@H](C(=O)Nc2ccccc2C(=O)N[C@H]2Cc3cc(O)cc(c3)-c3ccc4c(c3)c(c(-c3cnccc3COC)n4CC)CC(C)(C)COC(=O)[C@@H]3CCCN(N3)C2=O)C1 [Example A229] | 7.00 to 8.00 | 6.00 to 7.00 | 6.00 to 7.00 | 6.00 to 7.00 | 7.00 to 8.00 | 7.00 to 8.00 | 6.00 to 7.00 | 7.00 to 8.00 |  | 5.00 to 6.00 |  |
| CCn1c(-c2cc(N3CCN(C)CC3)cnc2[C@H](C)OC)c2c3cc(ccc31)-c1csc(n1)C[C@H](NC(=O)[C@H](C(C)C)N(C)C(=O)N1CC(OC)C1)C(=O)N1CCC[C@H](N1)C(=O)OCC(C)(C)C2 [Example A466] |  |  |  |  |  |  |  |  |  | > 8.00 |  |
| CCn1c(-c2cccnc2[C@H](C)OC)c2c3cc(ccc31)-c1csc(n1)C[C@H](NC(=O)[C@H](C(C)C)N(C)C(=O)N1CC(Cc3cnn(C)c3)C1)C(=O)N1CCC[C@H](N1)C(=O)OCC(C)(C)C2 [Example A500] |  |  |  |  |  |  |  |  |  | > 8.00 |  |
| CCn1c(-c2cnccc2COC)c2c3cc(ccc31)-c1cc(O)cc(c1)C[C@H](NC(=O)[C@H](C(C)C)N(C)C(=O)[C@H]1CCN(CCO)C1)C(=O)N1CCC[C@H](N1)C(=O)OCC(C)(C)C2 [Example A23, (2S)—N-[(8S,14S)-22-ethyl-4-hydroxy-21-[4-(methoxymethyl)pyridin-3-yl]-18,18-dimethyl-9,15-dioxo-16-oxa-10,22,28-triazapentacyclo[18.5.2.1^2,6.1^10,14.0^23,27]nonacosa-1(26),2,4,6(29),20,23(27),24-heptaen-8-yl]-2-{1-[(3S)-1-(2-hydroxyethyl)pyrrolidin-3-yl]-N-methylformamido}-3-methylbutanamide] |  |  |  |  |  |  |  |  | 5.00 to 6.00 |  | pIC50 (KRAS G12C; KRAS G12C FRET data, IC50): 6.00 to 7.00; pIC50 (KRAS G12D; KRAS G12D FRET data, IC50): 6.00 to 7.00; pIC50 (KRAS G12S; KRAS G12S FRET data, IC50): 6.00 to 7.00; pIC50 (KRAS G12V; KRAS G12V FRET data IC50, KRAS G12V): 5.00 to 6.00; pIC50 (KRAS G13C; KRAS G13C FRET data, IC50): 7.00 to 8.00; pIC50 (KRAS G13D; KRAS G13D FRET data IC50, KRAS G13D): 7.00 to 8.00; pIC50 (KRAS WT; KRAS WT FRET data IC50, KRAS WT): 7.00 to 8.00; pIC50 (NRAS G12C; NRAS G12C FRET data IC50, NRAS G12C): 6.00 to 7.00 |
| CCn1c(-c2cnccc2COC)c2c3cc(ccc31)-c1cc(O)cc(c1)C[C@H](NC(=O)[C@H](C(C)C)N(C)C(=O)[C@H]1CCN(C(=O)C(C)(C)N(C)C)C1)C(=O)N1CCC[C@H](N1)C(=O)OCC(C)(C)C2 [Example A8] |  |  |  |  |  |  |  |  |  | 5.00 to 6.00 |  |

Now from value to compound, other results behind:

| pIC50 (KRAS G12C; [1]) | pIC50 (KRAS G12D; [2]) | pIC50 (KRAS G12S; [3]) | pIC50 (KRAS G12V; [4]) | pIC50 (KRAS G13C; [5]) | pIC50 (KRAS G13D; [6]) | pIC50 (KRAS WT; [7]) | pIC50 (NRAS G12C; [8]) | pIC50 (NCI-H358 (K-Ras G12C); [9]) | Structure (SMILES) | pIC50 (Capan-1 (K-Ras G12V)) | further results |
| --- | --- | --- | --- | --- | --- | --- | --- | --- | --- | --- | --- |
| 6.00 to 7.00 | 5.00 to 6.00 | 5.00 to 6.00 | 5.00 to 6.00 | 6.00 to 7.00 | 5.00 to 6.00 | 5.00 to 6.00 | 5.00 to 6.00 |  | CCn1c(-c2cccnc2[C@H](C)OC)c2c3cc(ccc31)-c1cccc(c1)C[C@H](NC(=O)[C@H](C(C)C)N(C)C(=O)[C@H]1CCN(C(=O)CN)C1)C(=O)N1CCC[C@H](N1)C(=O)OCC(C)(C)C2 [Example A105] | < 5.00 |  |
| 6.00 to 7.00 | < 5.00 | 5.00 to 6.00 | 5.00 to 6.00 | 5.00 to 6.00 | 5.00 to 6.00 | 5.00 to 6.00 | 5.00 to 6.00 | 5.00 to 6.00 | CCn1c(-c2cnccc2COC)c2c3cc(ccc31)-c1cc(O)cc(c1)C[C@H](NC(=O)[C@@H](OC(=O)N(C)C)C(C)C)C(=O)N1CCC[C@H](N1)C(=O)OCC(C)(C)C2 [Example A53] |  |  |
| 6.00 to 7.00 | 5.00 to 6.00 | 6.00 to 7.00 | 6.00 to 7.00 | 6.00 to 7.00 | 6.00 to 7.00 | 6.00 to 7.00 | 6.00 to 7.00 | 5.00 to 6.00 | CCn1c(-c2cccnc2[C@H](C)OC)c2c3cc(ccc31)-c1cc(O)cc(c1)C[C@H](NC(=O)C1CCCC1C(F)F)C(=O)N1CCC[C@H](N1)C(=O)OCC(C)(C)C2 (some centres unmarked) [Example A254] |  |  |
| 6.00 to 7.00 and 7.00 to 8.00 | 6.00 to 7.00 and 5.00 to 6.00 | 6.00 to 7.00 and 5.00 to 6.00 | 6.00 to 7.00 and 5.00 to 6.00 | 6.00 to 7.00 and 5.00 to 6.00 | 6.00 to 7.00 and 5.00 to 6.00 | 6.00 to 7.00 and 5.00 to 6.00 | 5.00 to 6.00 |  | CCn1c(-c2cccnc2COC)c2c3cc(ccc31)-c1cc(O)cc(c1)C[C@H](NC(=O)[C@H](C(C)C)N(C)C(=O)[C@H]1CCN(C(=O)CN)C1)C(=O)N1CCC[C@H](N1)C(=O)OCC(C)(C)C2 [Example A12] |  | pIC50 (NCI-H358 (K-Ras G12C); read-out: H358 Cell Viability IC50): 5.37; pIC50 (KRAS G12C; read-out: FRET G12C IC50): 7.17; pIC50 (KRAS G12D; read-out: FRET G12D IC50): 6.81; pIC50 (KRAS G12V; read-out: FRET G12V IC50): 6.48; pIC50 (KRAS G13C; read-out: FRET G13C IC50): 6.83; pIC50 (KRAS G13D; read-out: FRET G13D IC50): 6.66 |
